Measurements taken from patent publication US9895352B2, “Indolinone compounds and uses thereof” (Oncternal Therapeutics, Inc., priority 2014, dated 2018).
Several values for one entry are separate records, joined by “and”; a condition that tells them apart may be missing. Identical values can stand only once. Like-named read-outs stand apart in the source and are kept apart here.

Legend:
[1] = tested on: SKES cells (Ewing Sarcoma cell line); test: CCK-8 tetrazolium tumor cell growth inhibition, SKES; format: cell-based; settings: Homo sapiens
Experimental: A modified tetrazolium salt assay using the CCK-8 kit (Sigma-Aldrich; St Louis, Mo.) was used to measure the inhibition of human tumor cell growth. Tumor cells (5000-7500 per well) were added to 96 well plates and allowed to attach for 4-5 hours. Compounds were serially diluted and added in triplicate at a concentration of 0.02 to 5 μM. DMSO was included as a vehicle control. Cells were incubated in the presence of compound for 3 days. After incubation CCK-8 reagent was added to each well and incubated for 2-4 hours. Viable cells were quantitated spectrophotometrically at a wavelength of 450 nm. Percent viability of each sample was calculated from the A450 values as follows: % viability=(A450 nm sample/A450 nm DMSO-treated cells×100). […] IC50 activities of particular compounds were determined using SKES cells (Ewing Sarcoma cell line).

[2] = human liver microsome, no cofactor, 60 min
[3] = rat liver microsome, no cofactor, 60 min
[4] = dog liver microsome, no cofactor, 60 min
[5] = mouse liver microsome, no cofactor, 60 min
[6] = Pharmacokinetics after IV and oral administration; format: in vivo; settings: BALB/c mice or Sprague Dawley rats
Experimental: Certain pharmacokinetics parameters were determined for certain compounds in vivo for intravenous and oral administration. Briefly, compounds were formulated and administered using IV bolus, continuous IV infusion or oral administration. Blood was collected at multiple time points over 24 hours and processed into plasma. Plasma was analyses for parent using LC/MS/MS. Certain parameters for certain compounds were obtained in duplicate.

[7] = 72 h, SKES cells, 3 days with compound, CCK-8 (TABLE 3)
[8] = 20 mg/kg po, labrasol/tetraglycol 9:1
[9] = 20 mg/kg po, labrasol:tetraglycol:water 72:8:20
[10] = plasma, iv, 5 mg/kg, 5 mg/kg IV, captisol
[11] = plasma, po, 20 mg/kg, 20 mg/kg po, labrasol/tetraglycol 9:1
[12] = plasma, po, 20 mg/kg, 20 mg/kg po, labrasol:tetraglycol:water 72:8:20

SMILES | IC50 [1, 7] | IC50 ([1]; SKES, ES, EWS-FLI1 Type 2) | further results
O=C(CC1(O)C(=O)Nc2c(Cl)ccc(Cl)c21)c1ccccn1 (racemic) [Cmpd 32, 4,7-dichloro-3-hydroxy-3-(2-oxo-2-(pyridin-2-yl)ethyl)indolin-2-one] | > 5 µM | > 5 µM | 
O=C(CC1(O)C(=O)Nc2c(Cl)ccc(Cl)c21)c1ccc(-n2cccn2)cc1 (racemic) [Cmpd 16, 3-(2-(4-(1H-Pyrazol-1-yl)phenyl)-2-oxoethyl)-4,7-dichloro-3-hydroxyindolin-2-one] | > 5 µM | > 5 µM | 
O=C(CC1(O)C(=O)Nc2c(Cl)ccc(Cl)c21)c1ccc(C2CC2)cc1F (single isomer, unassigned) [Cmpd 38, 4,7-Dichloro-3-(2-(4-cyclopropyl-2-fluorophenyl)-2-oxoethyl)-3-hydroxyindolin-2-one] |  |  | Remaining (NCF = 60 min) [2]: 99.5%
O=C(CC1(O)C(=O)Nc2c(Cl)ccc(Cl)c21)c1ccc(N2CCOCC2)cc1 (racemic) [Cmpd 29, 4,7-dichloro-3-hydroxy-3-(2-(4-moprholinophenyl)-2-oxoethyl)indolin-2-one] | > 5 µM | > 5 µM | 
O=C(CC1(O)C(=O)Nc2c(Cl)ccc(Cl)c21)c1cccnc1 (racemic) [Cmpd 31, 4,7-dichloro-3-hydroxy-3-(2-oxo-2-(pyridin-3-yl)ethyl)indolin-2-one] | > 5 µM | > 5 µM | 
O=C(CC1(O)C(=O)Nc2c(Cl)ccc(Cl)c21)c1ccc(C2CC2)c(F)c1 (single isomer, unassigned) [Cmpd 36, 4,7-Dichloro-3-(2-(4-cyclopropyl-3-fluorophenyl)-2-oxoethyl)-3-hydroxyindolin-2-one] |  |  | Remaining (NCF = 60 min) [2]: 104.0%
COC1CCC(C(=O)CC2(O)C(=O)Nc3c(Cl)ccc(Cl)c32)CC1 (racemic) [Cmpd 23, 4,7-Dichloro-3-hydroxy-3-(2-(4-methoxycyclohexyl)-2-oxoethyl)indolin-2-one] | > 5 µM | > 5 µM | 
CC(C)c1ccc(C(=O)CC2(O)C(=O)Nc3c(Cl)ccc(Cl)c32)cc1 (racemic) [Cmpd 9, 4,7-Dichloro-3-hydroxy-3-(2-(4-isopropylphenyl)-2-oxoethyl)indolin-2-one] | > 5 µM | > 5 µM | 
NC(=O)c1ccc(C(=O)CC2(O)C(=O)Nc3c(Cl)ccc(Cl)c32)cc1 (racemic) [Cmpd 33, 4-(2-(4,7-dichloro-3-hydroxy-2-oxoindolin-3-yl)acetyl)benzamide] | > 5 µM | > 5 µM | 
CS(=O)(=O)c1ccc(C(=O)CC2(O)C(=O)Nc3c(Cl)ccc(Cl)c32)cc1 (racemic) [Cmpd 4, 4,7-Dichloro-3-hydroxy-3-(2-(4-(methylsulfonyl)phenyl)-2-oxoethyl)indolin-2-one] | > 5 µM | > 5 µM | 
O=C(CC1(O)C(=O)Nc2c(Cl)ccc(Cl)c21)c1ccc(N2CCC2)cc1 (racemic) [Cmpd 22, 3-(2-(4-(Azetidin-1-yl)phenyl)-2-oxoethyl)-4,7-dichloro-3-hydroxyindolin-2-one] | < 5 µM | < 5 µM | 
O=C(CC1(O)C(=O)Nc2c(Cl)ccc(Cl)c21)c1ccc(C2CC2)cc1F (racemic) [Cmpd 27, 4,7-Dichloro-3-(2-(4-cyclopropyl-2-fluorophenyl)-2-oxoethyl)-3-hydroxyindolin-2-one] | < 5 µM | < 5 µM | 
O=C(CC1(O)C(=O)Nc2c(Cl)ccc(Cl)c21)c1ccc(F)c(F)c1 (racemic) [Cmpd 35, 4,7-dichloro-3-(2-(3,4-difluorophenyl)-2-oxoethyl)-3-hydroxyindolin-2-one] | > 5 µM | > 5 µM | 
O=C(CC1(O)C(=O)Nc2c(Cl)ccc(Cl)c21)c1ccncc1 (racemic) [Cmpd 30, 4,7-dichloro-3-hydroxy-3-(2-oxo-2-(pyridin-4-yl)ethyl)indolin-2-one] | > 5 µM | > 5 µM | 
COC12CCC(C(=O)CC3(O)C(=O)Nc4c(Cl)ccc(Cl)c43)(CC1)CC2 (racemic) [Cmpd 24, 4,7-Dichloro-3-hydroxy-3-(2-(4-methoxybicyclo[2.2.2]octan-1-yl)-2-oxoethyl)indolin-2-one] | > 5 µM | > 5 µM | 
O=C(CC1(O)C(=O)Nc2c(Cl)ccc(Cl)c21)c1ccc(C2CC2)cc1 (single isomer, unassigned) [Cmpd 13, 4,7-Dichloro-3-(2-(4-cyclopropylphenyl)-2-oxoethyl)-3-hydroxyindolin-2-one] | > 5 µM | > 5 µM | Remaining (NCF = 60 min) [3]: 97.0%; Remaining (NCF = 60 min) [4]: 98.4%; Remaining (NCF = 60 min) [5]: 85.6%; Remaining (NCF = 60 min) [2]: 105.1%
O=C(CC1(O)C(=O)Nc2c(Cl)ccc(Cl)c21)c1ccc(N2CCCC2)cc1 (stereo not drawn) [Cmpd 17, 4,7-Dichloro-3-hydroxy-3-(2-oxo-2-(4-(pyrrolidin-1-yl)phenyl)ethyl)indolin-2-one] | > 5 µM | > 5 µM | 
O=C(CC1(O)C(=O)Nc2c(Cl)ccc(Cl)c21)c1ccc(C2CC2)c(F)c1 (racemic) [Cmpd 26, 4,7-Dichloro-3-(2-(4-cyclopropyl-3-fluorophenyl)-2-oxoethyl)-3-hydroxyindolin-2-one] | < 5 µM | < 5 µM | 
COc1ccc(C(=O)CC2(O)C(=O)Nc3c(Cl)ccc(Cl)c32)cc1 (single isomer, unassigned) [Cmpd 3, 4,7-Dichloro-3-hydroxy-3-[2-(4-methoxyphenyl-2-oxoethyl)]-1,3-dihydroindol-2-one] |  |  | Remaining (NCF = 60 min) [3]: 92.6%; Remaining (NCF = 60 min) [4]: 100.1%; Remaining (NCF = 60 min) [5]: 97.5%; Remaining (NCF = 60 min) [2]: 112.6%
O=C(CC1(O)C(=O)Nc2c(Cl)ccc(Cl)c21)c1ccc(N2CCCC2)c(F)c1 (racemic) [Cmpd 21, 4,7-Dichloro-3-(2-(3-fluoro-4-(pyrrolidin-1-yl)phenyl)-2-oxoethyl)-3-hydroxyindolin-2-one] | > 5 µM | > 5 µM | 
NS(=O)(=O)c1ccc(C(=O)CC2(O)C(=O)Nc3c(Cl)ccc(Cl)c32)cc1 (racemic) [Cmpd 20, 4-(2-(4,7-Dichloro-3-hydroxy-2-oxoindolin-3-yl)acetyl)benzenesulfonamide] | > 5 µM | > 5 µM | 
CNc1ccc(C(=O)CC2(O)C(=O)Nc3c(Cl)ccc(Cl)c32)cc1 (single isomer, unassigned) [Cmpd 5, 4,7-dichloro-3-hydroxy-3-[2-[4-(methylamino)phenyl]-2-oxoethyl]-1H-indol-2-one] |  |  | AUC ([6]; 5 mg/kg IV, captisol): 2324 h * (ng/mL) and 3207 h * (ng/mL); AUC [6, 8]: 5192 h * (ng/mL) and 4939 h * (ng/mL); Tmax [6, 8]: 0.5 h; % F [6, 9]: 39%; AUC [6, 9]: 4354 h * (ng/mL) and 4081 h * (ng/mL); Tmax [6, 9]: 0.5 h; Cmax [6, 10]: 13000 ng/mL; half-life [6, 10]: 1.7 h; Tmax ([6]; plasma, iv, 5 mg/kg, 5 mg/kg IV, captisol, read-out: Tmax): 0.033 h; Cmax [6, 11]: 2180 ng/mL; bioavailability [6, 11]: 56%; half-life [6, 11]: 3.1 h; Tmax ([6]; plasma, po, 20 mg/kg, 20 mg/kg po, labrasol/tetraglycol 9:1, read-out: Tmax): 1 h; Cmax [6, 12]: 1570 ng/mL; bioavailability [6, 12]: 47%; half-life [6, 12]: 2.8 h; Tmax ([6]; plasma, po, 20 mg/kg, 20 mg/kg po, labrasol:tetraglycol:water 72:8:20, read-out: Tmax): 1 h
O=C(CC1(O)C(=O)Nc2c(Cl)ccc(Cl)c21)c1ccc(O)cc1 (racemic) [Cmpd 34, 4,7-dichloro-3-hydroxy-3-(2-(4-hydroxyphenyl)-2-oxoethyl)indolin-2-one] | > 5 µM | > 5 µM | 
O=C(CC1(O)C(=O)Nc2c(Cl)ccc(Cl)c21)c1ccc(N2CC2)cc1 (racemic) [Cmpd 8, 3-(2-(4-(Aziridin-1-yl)phenyl)-2-oxoethyl)-4,7-dichloro-3-hydroxyindolin-2-one] | < 5 µM | < 5 µM | 
CN(C)C12CCC(C(=O)CC3(O)C(=O)Nc4c(Cl)ccc(Cl)c43)(CC1)CC2 (racemic) [Cmpd 25, 4,7-Dichloro-3-(2-(4-(dimethylamino)bicyclo[2.2.2]octan-1-yl)-2-oxoethyl)-3-hydroxyindolin-2-one] | > 5 µM | > 5 µM | 
